Measured values taken from patent US6110491A, “Compound-loaded liposomes and methods for their preparation” (Hermes Biosciences, Inc., priority 1997, dated 2000).
Values after ≈ are worked out from the molar mass of the structure shown.

Tests used:
[1] = liposomes loaded by the ammonium ion method (Haran, et al., 1993); cited from earlier work
[2] = Doxorubicin loading into liposomes with entrapped anions essentially free from transmembrane pH or ammonium ion gradients (Example 8); format: physicochemical; settings: 36° C., 12 hours
Experimental: Aqueous solutions containing ammonium salts of hydrochloric, nitric, methanesulfonic, L(+)-tartaric, citric, sulfuric, phosphoric, diethylenetriamine pentaacetic (DTPA), or polyacrylic (Mol. weight. 2,000) acids were prepared by titration of the respective acids in water with the standard aqueous solution of ammonium hydroxide to achieve pH 7.3±0.05,followed by volume adjustment to achieve 0.2 equivalent/L of ammonium ion, and, if necessary, by addition of dry sucrose to achieve osmolarity of 377 mmol/kg. (These solutions are hereinafter referred to as Inner Buffers). All solutions additionally contained 10 mM hydroxyethylpiperazinoethane sulfonic acid (HEPES) to stabilize the pH at titration endpoint. To afford determination of intraliposomal pH, a fluorescence indicator 8-hydroxypyrene trisulfonate was added to the solutions to the final concentration of 0.2 mM. Liposomes containing entrapped ammonium salt solutions as above were prepared from egg phosphatidyl choline, cholesterol, and PEG-DSPE as described in the Example 7, except that lipid hydration and extrusion were carried out at room temperature. The bulk aqueous phases of liposome preparations were exchanged by gel-filtration for an aqueous solution (Outer buffer) containing 0.2 M ammonium chloride, 10 mM HEPES, pH 7.3, osmolarity 377 mmol/kg, to obtain liposome preparations substantially without transmembrane ammonium-ion gradients. Loading of doxorubicin was performed as in Example 7, except that it was at 36° C. for 12 hours. Intraliposomal pH was determined using HPTS fluorescence method (Straubinger, et al., 1990) prior to drug loading, and indicated essentially no inside-outside pH gradient (less than 0.2 pH units), compared with the gradient of several pH units typical for ammonium ion gradient liposomes (Haran, et al., 1993). The following results were obtained (nd, not determined)

[3] = test system: Human nasopharyngeal epidermoid carcinoma (KB) cells; experiment: Cytotoxicity, growth inhibition by tetrazolium assay (96 hour incubation); format: cell-based; settings: read-out: 50% growth inhibitory concentration (IC50)
Experimental: Human nasopharyngeal epidermoid carcinoma (KB) cells were from American Type Culture Collection (ATCC, Rockville, M.D.). The cells were grown in RPMI 1640 medium supplemented with 10% heat inactivated fetal calf serum, harvested by trypsinization, and plated in 96-well tissue culture plates at 2×10^4 cells/well. After a 24 hour acclimation period, a solution of free doxorubicin or the doxorubicin liposomes described in Example 1 were added to the cells to achieve final doxorubicin concentrations of 0.125-8 μg/ml. "Empty" liposomes were added to control cells at matching concentrations of the lipid. After a 96 hour incubation period, viability of the cells was measured by tetrazolium assay (Carmichael, et al., 1987). 50% growth inhibitory concentrations (IC50) of the studied preparation were as follows: […]

[4] = Doxorubicin loading into liposomes with entrapped polyacrylate / chondroitin sulfate A (Examples 1, 3); format: physicochemical
Experimental: 21.6 mg of polyacrylic acid (molecular weight 2,000; Aldrich Corporation, Milwaukee, Wis.) were dissolved in 3 ml of water and neutralized to pH 7.4 with NaOH to produce 100 milli-eq/L sodium polyacrylate solution. 10 mg of the mixture of egg PC, cholesterol, and PEG (molecular weight 2,000)-DSPE (Avanti Polar Lipids, Birmingham, Ala.) in the molar ratio of 10:5:1 was dissolved in chloroform, the solvent was evaporated in vacuum, the lipid film was incubated with shaking in 1 ml of the above polyacrylate solution, and the lipid dispersion was extruded under pressure through 2 stacked Nucleopore (Pleasanton, Calif.) membranes with pore size […]. […] To the so obtained liposomes, doxorubicin (Cetus Oncology, Norwalk, Conn.) was added at 200 nmol/μmol, of liposomal phospholipid. The mixture was incubated overnight at 37° C. with shaking, treated with Dowex 50W×4 (Sigma Chemical Co., St. Louis, Mo.), and equilibrated with NaCl-HEPES solution to remove non-encapsulated doxorubicin. The resulting liposomes were sterilized by filtration through a […] filter and assayed for doxorubicin by spectrophotometry and liposomal phospholipid by acid digestion-molybdene blue assay. […] Under similar conditions, doxorubicin loading into liposomes without entrapped sodium polyacrylate was 8 nmol/μmol of phospholipid.
Liposomes were prepared as in Example 1, except that inner buffer, instead of polyacrylic acid, contained 5 mg/ml of chondroitinsulfate A (Sigma Chemical Co., St. Louis, Mo.). After overnight incubation with doxorubicin ([…] of phospholipid) at pH 7.2, free drug was removed from the liposomes, and the liposomes were assayed as in Example 1. The doxorubicin content in the resulting liposomes was 26.0 nmol/μmol of phospholipid.

[5] = Doxorubicin loading into liposomes with entrapped sodium salts of sulfuric, phosphoric, polyvinylsulfuric or polyphosphoric acid, without or with nigericin (Examples 4, 5); format: physicochemical
Experimental: Liposomes were prepared from egg phosphatidylcholine using the procedure identical to Example 1 but instead of polyacrylic acid, the inner buffers contained one of the following salts: sodium sulfate, sodium phosphate, sodium polyvinylsulfate (Fluka, Ronkonkoma, N.Y.; average chain length n=13), or sodium polyphosphate (Sigma Chemical Co.; average chain length n=13-18), at a concentration of 100 mill-equivalents of sodium/L. The liposomes were incubated with doxorubicin (300 nmol/μmol of phospholipid) overnight, free drug was removed from the liposomes, and the liposomes were assayed as described in Example 1. Drug incorporation into the liposomes was as follows (in nmol/μmol of phospholipid): sodium sulfate, 82.1±0.95; sodium phosphate, 76.8±2.3; sodium polyvinylsulfate, 109.8±0.25; sodium polyphosphate, 85.2±2.2; "blank" liposomes, containing 100 mM sodium chloride, 1.03±0.06.
Liposomes were prepared and loading with doxorubicin as in Example 4, except that prior to drug loading, nigericin was added to the liposomes at a concentration of 5 μmol/L. The following drug incorporation (nmol/μmol of phospholipid) was obtained in the liposomes containing: sodium sulfate, 96.5±1.9; sodium phosphate, 271.9±3.8; sodium polyvinylsulfate, 133.7±1.9; sodium polyphosphate, 169.7±2.7.

**Q.** For `COc1cccc2c1C(=O)c1c(O)c3c(c(O)c1C2=O)C[C@@](O)(C(=O)CO)C[C@@H]3O[C@H]1C[C@H](N)[C@H](O)[C@H](C)O1` [doxorubicin], which “Doxorubicin release by nigericin” value [1] is on record?
**A.** quickly releases

**Q.** What about the “Doxorubicin incorporation into liposomes” value ([2]; inner buffer anion DTPA) of the same compound?
**A.** 40.8 mg of drug/mmol of liposome ph

**Q.** What about the “Doxorubicin incorporation into liposomes” value ([2]; inner buffer anion L(+)-tartrate) of the same compound?
**A.** 27.5 mg of drug/mmol of liposome ph

**Q.** And the “Doxorubicin incorporation into liposomes” value ([2]; inner buffer anion chloride)?
**A.** 16.8 mg of drug/mmol of liposome ph

**Q.** And the “Doxorubicin incorporation into liposomes” value ([2]; inner buffer anion citrate)?
**A.** 97.9 mg of drug/mmol of liposome ph

**Q.** What about the “Doxorubicin incorporation into liposomes” value ([2]; inner buffer anion methanesulfonate) of the same compound?
**A.** 17.1 mg of drug/mmol of liposome ph

**Q.** And the “Doxorubicin incorporation into liposomes” value ([2]; inner buffer anion nitrate)?
**A.** 12.4 mg of drug/mmol of liposome ph

**Q.** What about the “Doxorubicin incorporation into liposomes” value ([2]; inner buffer anion phosphate) of the same compound?
**A.** 68.1 mg of drug/mmol of liposome ph

**Q.** What about the “Doxorubicin incorporation into liposomes” value ([2]; inner buffer anion polyacrylate) of the same compound?
**A.** 142.7 mg of drug/mmol of liposome ph

**Q.** And the “Doxorubicin incorporation into liposomes” value ([2]; inner buffer anion sulfate)?
**A.** 33.5 mg of drug/mmol of liposome ph

**Q.** And the IC50 [3]?
**A.** 0.35 µg/mL (≈ 0.644 µM)

**Q.** And the “Doxorubicin content in the resulting liposomes” value ([4]; entrapped chondroitin sulfate A 5 mg/ml, overnight, pH 7.2)?
**A.** 26.0 nmol/μmol of phospholipid

**Q.** And the “Doxorubicin content of liposomes” value ([4]; entrapped sodium polyacrylate, egg PC/cholesterol/PEG-DSPE, doxorubicin 200 nmol/μmol, overnight 37° C.)?
**A.** 129 nmol/μmol of liposomal phospholipid

**Q.** What about the “Doxorubicin loading into liposomes” value ([4]; without entrapped sodium polyacrylate, similar conditions) of the same compound?
**A.** 8 nmol/μmol of phospholipid

**Q.** And the “Drug incorporation into the liposomes” value ([5]; "blank" liposomes containing 100 mM sodium chloride, doxorubicin 300 nmol/μmol)?
**A.** 1.03±0.06 nmol/μmol of phospholipid

**Q.** And the “Drug incorporation into the liposomes” value ([5]; entrapped sodium phosphate, doxorubicin 300 nmol/μmol, overnight, no nigericin)?
**A.** 76.8±2.3 nmol/μmol of phospholipid

**Q.** What about the “Drug incorporation into the liposomes” value ([5]; entrapped sodium phosphate, nigericin 5 μmol/L) of the same compound?
**A.** 271.9±3.8 nmol/μmol of phospholipid

**Q.** What about the “Drug incorporation into the liposomes” value ([5]; entrapped sodium polyphosphate, doxorubicin 300 nmol/μmol, overnight, no nigericin) of the same compound?
**A.** 85.2±2.2 nmol/μmol of phospholipid

**Q.** And the “Drug incorporation into the liposomes” value ([5]; entrapped sodium polyphosphate, nigericin 5 μmol/L)?
**A.** 169.7±2.7 nmol/μmol of phospholipid

**Q.** What about the “Drug incorporation into the liposomes” value ([5]; entrapped sodium polyvinylsulfate, doxorubicin 300 nmol/μmol, overnight, no nigericin) of the same compound?
**A.** 109.8±0.25 nmol/μmol of phospholipid

**Q.** And the “Drug incorporation into the liposomes” value ([5]; entrapped sodium polyvinylsulfate, nigericin 5 μmol/L)?
**A.** 133.7±1.9 nmol/μmol of phospholipid

**Q.** And the “Drug incorporation into the liposomes” value ([5]; entrapped sodium sulfate, doxorubicin 300 nmol/μmol, overnight, no nigericin)?
**A.** 82.1±0.95 nmol/μmol of phospholipid

**Q.** And the “Drug incorporation into the liposomes” value ([5]; entrapped sodium sulfate, nigericin 5 μmol/L)?
**A.** 96.5±1.9 nmol/μmol of phospholipid

**Q.** What about the “Effect of nigericin on drug loading” value ([5]; permeabilization of liposome membrane by nigericin 5 μmol/L) of the same compound?
**A.** did not decrease drug loading
